Like-named read-outs stand apart in the source and are kept apart here.
Key:
[1] = tested on: C57BL/6J, B6.B10ScN-Tlr4lps-del/JthJ and C3H/HeJ mice; assay type: in vivo
Protocol: The role of TLR-4 in response to an acute increase in free heme was investigated. Wild type C57BL/6J mice and TLR-4 mutant mice B6.B10ScN-Tlr4^lps-del and C3H/HeJ (Poltorak et al. Defective LPS signaling in C3H/HeJ and C57BL/10ScCr mice: mutations in Tlr4 gene. Science. 1998; 282(5396):2085-2088.; Qureshi et al. Endotoxin-tolerant mice have mutations in Toll-like receptor 4 (Tlr4). The J Expt. Med. 1999; 189(4):615-625) were injected intravenously with 210 μmoles/kg hemin, a normally lethal dose. This injection increased free heme concentrations by a magnitude of 50-fold in both wild type and TLR-4 mutant mice (FIG. 6a).
TPH per se, therefore, the involvement of a receptor mediated mechanism was suspected. Several heme receptors have been characterized, including TLR433, which is uniquely expressed by multiple cells in the circulation and therefore accessible to PFPH. Studies were performed in wild-type C57BL/6J mice, and mutant strains, B6.B10ScN-Tlr4lps-del/JthJ and C3H/HeJ, harboring a deletion and a point mutation respectively, in the murine TLR4 gene. Significant elevation of PFPH in these mice required a large dose of heme (210 μmoles/kg) (FIG. 12a), and as expected this amount of heme interfered, transiently with SpO2 measurements characterized by an immediate and dramatic decline. […] This interpretation was supported by a return of SpO2 values to normal in C3H/HeJ but not in the wild-type C57BL/6J mice, indeed, SpO2 deteriorated over time in the latter reminiscent of the decline in SS mice (FIG. 12b). […] These unique pulmonary responses were consistent with survival (FIG. 12d) and lung histology (FIG. 13).

[2] = tested on: NF-κB; assay: NF-κB activation in pulmonary microvascular endothelial cells; assay type: cell-based; settings: PMVECs, hemin 5 or 10 μM
Source text: Additionally, the role of NF-κB in the inflammatory response to free heme that occurs in ACS was investigated. Endothelial TLR4, and not neutrophil TLR4, mediates the early stage of the acute sequestration of neutrophils into the lungs in response to systemic LPS (Andonegui et al. Endothelium-derived Toll-like receptor-4 is the key molecule in LPS-induced neutrophil sequestration into lungs. J Clin Invest. 2003; 111(7):1011-1020; Andonegui et al. Mice that exclusively express TLR4 on endothelial cells can efficiently clear a lethal systemic Gram-negative bacterial infection. J Clin Invest. 2009; 119(7): 1921-1930). Thus, pulmonary microvascular endothelial cells (PMVECs) may play a role in the inflammatory response to free heme. […] These include nuclear translocation of p65 NF-κB in PMVECs as determined by immunofluorescence staining and western blot of nuclear extract (FIGS. 7b and 7c, respectively), luciferase reporter gene activity driven by a promoter harboring NF-κB cis elements in PMVECs (FIG. 7d), and TNF-α production (FIG. 7e).

[3] = tested on: SS mice
[4] = tested on: non-sickle cell disease mice; settings: hemin 70 μmoles/kg, Vinchi et al.; cited from earlier work
[5] = tested on: SS mice; assay: TAK-242 pre-treatment before heme in SS mice; assay type: in vivo, mouse
Protocol: (a, b) The concentration of total and protein-free plasma heme in SS mice following, injections of TAK-242 or intralipid in the absence of exogenous heme. (c, d) Percentage oxygen saturation and breath rate monitored in real-time in SS mice at different stages of the experiment as indicated. Data shown are for a total of nine SS mice (intralipid; n=4, TAK-242; n=5). (e) Survival of SS mice pre-treated with TAK-242 (3 or 5 mg/kg) for 1 h prior to intravenous administration of heme (n=7-13). Control mice were treated with intralipid (n=17). (f) Representative lung H&E staining of SS mice treated with intralipid or TAK-242 one hour prior to administration of heme (35 μmoles/kg). Cumulative lung injury score (n=3). *p<0.05, **p<0.01 and ***p<0.001.
TAK-242 (resatorvid) is a small molecule that binds to Cys747 of the intracellular domain of TLR4 and inhibits downstream signaling. It inhibits the production of lipopolysaccharide (LPS)-induced inflammatory mediators, and it improves survival in LPS-induced sepsis. […] One hour prior to heme administration, a cohort of SS mice were intravenously administered 5 mg/kg of TAK-242, or intralipid. […] Heme had no impact on SpO2 in the majority of TAK-242 treated SS mice (5/6), however it caused an initially subtle yet sustained decrease that deteriorated over time in the intralipid treated mice (FIG. 14c). […] TAK-242 protected 83% of the SS mice from heme induced lethality, compared to 20% in the group given intralipid. These survival data were similar to those obtained in subsequent experiments focused on heme induced lethality (TAK-242; 5/7 (71%) protection, intralipid; 3/12 […] protection). The combined data is shown in FIG. 14e, and is supported by histological analysis (FIG. 14f).

[6] = tested on: SS mice; assay: Acute prophylaxis with recombinant human hemopexin before heme in SS mice; assay type: in vivo, mouse; settings: 1 mg intravenously immediately before heme 35 μmoles/kg
Protocol: Mice were injected with rhHx (n=6), vehicle (n=5) or human IgG (n=3) immediately before administration of heme (35 μmoles/kg). *p<0.05, **p<0.01 and ***p<0.001.
The hemopexin-treated mice were all protected while the control mice succumbed to heme (FIG. 11). Thus, acute prophylaxis using hemopexin may be an attractive therapeutic strategy to block the deleterious effects of PFPH during severe episodes of acute hemolysis in SCD.

In the case of Iron mesoporphyrin [Fe(III)MPP-IX], the survival ([1]; mouse, in vivo) is reported as “no impact on survival”.

For Fe(III)PPIX [hemin], the mortality ([1]; hemin 210 μmoles/kg, both types of TLR-4 mutant mice) was 0%, the mortality rate ([1]; hemin 210 μmoles/kg, wild type C57BL/6J mice, after 90 minutes) was 100% and the “NF-κB activation (p65 nuclear translocation, luciferase reporter, TNF-α production)” value [2] was “dose-dependently activates”. The “serum ALT” value ([3]; SS mice treated with heme, at the median time of death) was “normal”, the “plasma hemopexin level after heme injection” value ([3]; SS mice, heme 35 μmoles/kg, 5-30 min) was “virtually undetectable levels” and the survival ([3]; heme 35 μmoles/kg, SS mice with the highest baseline hemopexin level) was 50%. The survival ([3]; heme 35 μmoles/kg, SS mice with the lowest baseline hemopexin (<0.1 mg/ml)) was “none”, the survival ([3]; heme 70 μmoles/kg, AS and AA mice) was “no impact on survival” and the “total plasma heme (TPH) and protein-free plasma heme (PFPH)” value ([3]; heme 17.5-70 μmoles/kg intravenously, SS mice) was “raised TPH and PFPH in a dose-dependent manner”. The lethality ([3]; heme 17.5-70 μmoles/kg, SS mice) was “caused lethality in SS mice in a dose-dependent manner”, the “oxygen saturation (SpO2)” value ([3]; hemin 70 μmoles/kg intravenous, SS mice) was “sharp drop” and the “increase of plasma concentration of heme” value ([3]; hemin 70 μmoles/kg intravenously, SS and control mice) was 20 fold. The “change in SpO2 or breath rate” value ([3]; hemin 70 μmoles/kg, AS mice) was “no significant change”, the change in hematocrit ([3]; hemin 70 μmoles/kg, SS or control mice) was “did not significantly change” and the lethality ([3]; hemin 70 μmoles/kg, Townes and Berkeley SCD mice) was “caused sudden death”. For the same molecule, the mortality ([3]; hemin 70 μmoles/kg, adult SS mice aged 13-27 weeks) was 100%, the survival ([3]; hemin 70 μmoles/kg, young SS mice 5-7 weeks old) was 80% and the “increase of lung permeability” value [4] was 2 fold.

In the case of `C=CC1=C(C)c2cc3[nH]c(cc4[nH]c(cc5nc(cc1n2)C(C)=C5C=C)c(C)c4CCC(=O)[O-])c(CCC(=O)[O-])c3C.[Na+].[Na+]` [Na-PPIX, sodium protoporphyrin IX], the survival ([1]; injected at the LD100 of heme, C57BL/6J mice) is reported as “no impact on survival”.

With `CCOC(=O)C1=CCCC[C@H]1S(=O)(=O)Nc1ccc(F)cc1Cl` [TAK-242, resatorvid] the “development of heme induced ALI” value ([5]; SCD mice, pre-treatment 1 h before heme) was “prevents”, the “scavenging of heme (total and protein-free plasma heme)” value ([5]; SS mice, absence of exogenous heme) was “did not alter” and the “protection from heme induced lethality” value ([5]; TAK-242 5 mg/kg 1 h before heme, SS mice, first cohort) was 83%. For the same molecule, the “SS mice in which heme had no impact on SpO2” value ([5]; TAK-242 5 mg/kg intravenously 1 h before heme) was 5/6, the “breath rate after heme” value ([5]; TAK-242 5 mg/kg intravenously 1 h before heme, SS mice) was “remained essentially the same” and the “protection from heme induced lethality” value ([5]; subsequent experiments focused on lethality, SS mice) was 71%.

B1: recombinant human hemopexin: recombinant human hemopexin, a protein that binds free heme for transport to the liver (protein, UniProt P02790 24-462, looked up)
Hemopexin: TPLPPTSAHGNVAEGETKPDPDVTERCSDGWSFDATTLDDNGTMLFFKGEFVWKSHKWDRELISERWKNFPSPVDAAFRQGHNSVFLIKGDKVWVYPPEKKEKGYPKLLQDEFPGIPSPLDAAVECHRGECQAEGVLFFQGDREWFWDLATGTMKERSWPAVGNCSSALRWLGRYYCFQGNQFLRFDPVRGEVPPRYPRDVRDYFMPCPGRGHGHRNGTGHGNSTHHGPEYMRCSPHLVLSALTSDNHGATYAFSGTHYWRLDTSRDGWHSWPIAHQWPQGPSAVDAAFSWEEKLYLVQGTQVYVFLTKGGYTLVSGYPKRLEKEVGTPHGIILDSVDAAFICPGSSRLHIMAGRRLWWLDLKSGAQATWTELPWPHEKVDGALCMEKSLGPNSCSANGPGLYLIHGPNLYCYSDVEKLNAAKALPQPQNVTSLLGCTH
For B1, the “protection from heme induced lethality” value [6] was “all protected” and the “protection from heme induced lethality” value ([6]; listed as rhHx) was “protects”.

Reference: US20130123185A1, “METHODS OF TREATING AND DIAGNOSING ACUTE CHEST SYNDROME” (EMORY UNIVERSITY, priority 2010, published 2013)
